Source: ChEMBL document CHEMBL1128456, “Synthesis and biological evaluation of N6-cycloalkyl derivatives of 1-deazaadenine nucleosides: a new class of anti-human immunodeficiency virus agents” (J Med Chem, 1995)

Key:
[1] = test system: Human immunodeficiency virus 1; experiment: In vitro evaluation of anti-HIV-1 activity in C8166 cells infected with HIV-1 IIIB.; format: functional; settings: Human immunodeficiency virus 1, C8166; read-out: ED50 (the source's name)
Adenosine deaminase = target: T1, Adenosine deaminase (Bos taurus, UniProt P56658); experiment: Inhibition calf intestine adenosine deaminase
T1 sequence (P56658 whole entry): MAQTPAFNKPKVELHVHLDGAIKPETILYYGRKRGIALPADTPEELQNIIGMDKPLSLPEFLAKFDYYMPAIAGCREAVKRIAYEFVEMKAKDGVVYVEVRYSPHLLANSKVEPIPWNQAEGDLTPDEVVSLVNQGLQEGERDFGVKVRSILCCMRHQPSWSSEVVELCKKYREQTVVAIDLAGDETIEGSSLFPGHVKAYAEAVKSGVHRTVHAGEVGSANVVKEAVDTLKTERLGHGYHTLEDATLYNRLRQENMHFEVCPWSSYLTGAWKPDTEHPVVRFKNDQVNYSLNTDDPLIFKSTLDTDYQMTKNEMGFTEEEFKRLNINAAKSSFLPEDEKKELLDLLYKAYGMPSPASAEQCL

[2] = In vitro evaluation of cytotoxicity in C8166 cells infected with HIV-1 IIIB.; format: cell-based; settings: human, read-out: TC50 (the source's name)

Row | SMILES | EC50 [1] | Ki (Adenosine deaminase) | CC50 [2]
1 | OC[C@H]1O[C@@H](n2cnc3c(NC4CCCCCCC4)ccnc32)C[C@@H]1O | 4 µM | 59 µM | 40 µM
2 | CNc1cc(Cl)nc2c1ncn2C1CCC(CO)O1 (stereo unspecified) | > 100 µM | 11 µM | > 100 µM
3 | OC[C@H]1O[C@@H](n2cnc3c(NC4CCC4)cc(Cl)nc32)[C@H](O)[C@@H]1O | 100 µM | 97 µM | 400 µM
4 | OC[C@H]1O[C@@H](n2cnc3c(NC4CC4)ccnc32)[C@H](O)[C@@H]1O | > 100 µM | 38 µM | > 100 µM
5 | OC[C@H]1O[C@@H](n2cnc3c(NC4CCC4)ccnc32)C[C@@H]1O | 20 µM | 97 µM | 400 µM
6 | Nc1cc(Cl)nc2c1ncn2[C@@H]1O[C@H](CO)[C@@H](O)[C@H]1O | > 100 µM | 30 µM | > 100 µM
7 | OCC1CCC(n2cnc3c(NC4CCCCCCC4)cc(Cl)nc32)O1 (stereo unspecified) | 0.4 µM | > 100 µM | 10 µM
8 | OC[C@H]1O[C@@H](n2cnc3c(NC4CCCC4)ccnc32)C[C@@H]1O | 40 µM | 22 µM | 400 µM
9 | OCC1CCC(n2cnc3c(NC4CC4)cc(Cl)nc32)O1 (stereo unspecified) | > 100 µM | > 100 µM | > 100 µM
10 | OC[C@H]1O[C@@H](n2cnc3c(NC4CCCC4)ccnc32)[C@H](O)[C@@H]1O | 16 µM | > 100 µM | 400 µM
11 | Nc1cc(Cl)nc2c1ncn2C1CCC(CO)O1 (stereo unspecified) | > 100 µM | > 100 µM | > 100 µM
12 | OCC1CCC(n2cnc3c(NC4CCCCC4)cc(Cl)nc32)O1 (stereo unspecified) | 4 µM | > 100 µM | 20 µM
13 | OC[C@H]1O[C@@H](n2cnc3c(NC4CCCCCC4)cc(Cl)nc32)C[C@@H]1O | 0.2 µM | > 100 µM | 5 µM
14 | OCC1CCC(n2cnc3c(NC4CCCCCC4)cc(Cl)nc32)O1 (stereo unspecified) | 0.8 µM | > 100 µM | 8 µM
15 | OCC1CCC(n2cnc3c(NC4CCC4)ccnc32)O1 (stereo unspecified) | 50 µM | 92 µM | 400 µM
16 | OC[C@H]1O[C@@H](n2cnc3c(NC4CCCCC4)ccnc32)[C@H](O)[C@@H]1O | 100 µM | > 100 µM | 400 µM
17 | OC[C@H]1O[C@@H](n2cnc3c(NC4CCCCC4)cc(Cl)nc32)C[C@@H]1O | 4 µM | > 100 µM | 100 µM
18 | OC[C@H]1O[C@@H](n2cnc3c(NC4CC4)cc(Cl)nc32)[C@H](O)[C@@H]1O | 30 µM | > 100 µM | 500 µM
19 | Nc1ccnc2c1ncn2[C@@H]1O[C@H](CO)[C@@H](O)[C@H]1O | > 100 µM | 0.38 µM | 2 µM
20 | CNc1ccnc2c1ncn2C1CCC(CO)O1 (stereo unspecified) | 50 µM | 2.2 µM | 100 µM
21 | OC[C@H]1O[C@@H](n2cnc3c(NC4CCC4)cc(Cl)nc32)C[C@@H]1O | 4 µM | > 100 µM | 400 µM
22 | OCC1CCC(n2cnc3c(NC4CCCCCCC4)ccnc32)O1 (stereo unspecified) | 0.8 µM | > 100 µM | 10 µM
23 | OC[C@H]1O[C@@H](n2cnc3c(NC4CCC4)ccnc32)[C@H](O)[C@@H]1O | > 100 µM | 100 µM | > 100 µM
24 | OC[C@H]1O[C@@H](n2cnc3c(NC4CCCCC4)cc(Cl)nc32)[C@H](O)[C@@H]1O | 20 µM | > 100 µM | 50 µM
25 | OC[C@H]1OC(n2cnc3c(NC4CCCCCC4)ccnc32)[C@H](O)[C@@H]1O (stereo partly specified) | 20 µM | > 100 µM | 100 µM

Row | SMILES | EC50 [1] | Ki (Adenosine deaminase) | CC50 [2]
26 | CNc1ccnc2c1ncn2C1O[C@H](CO)[C@@H](O)[C@H]1O (stereo partly specified) | > 100 µM | 12 µM | > 100 µM
27 | OCC1CCC(n2cnc3c(NC4CCCCC4)ccnc32)O1 (stereo unspecified) | 40 µM | 69 µM | 50 µM
28 | Nc1ncnc2c1ncn2[C@H]1CC[C@@H](CO)O1 | 2 µM |  | > 100 µM
29 | Nc1ccnc2c1ncn2C1CCC(CO)O1 (stereo unspecified) | > 100 µM | 2.5 µM | > 100 µM
30 | OCC1CCC(n2cnc3c(NC4CCC4)cc(Cl)nc32)O1 (stereo unspecified) | 4 µM | > 100 µM | 250 µM
31 | OCC1CCC(n2cnc3c(NC4CCCC4)cc(Cl)nc32)O1 (stereo unspecified) | 20 µM | > 100 µM | 50 µM
32 | Nc1ccnc2c1ncn2[C@H]1C[C@H](O)[C@@H](CO)O1 | > 100 µM | 0.19 µM | > 100 µM
33 | OC[C@H]1OC(n2cnc3c(NC4CCCCCC4)cc(Cl)nc32)[C@H](O)[C@@H]1O (stereo partly specified) | 8 µM | > 100 µM | 50 µM
34 | OC[C@H]1O[C@@H](n2cnc3c(NC4CC4)ccnc32)C[C@@H]1O | > 100 µM | 50 µM | > 100 µM
35 | OC[C@H]1O[C@@H](n2cnc3c(NC4CCCC4)cc(Cl)nc32)C[C@@H]1O | 0.8 µM | > 100 µM | 7 µM
36 | OC[C@H]1OC(n2cnc3c(NC4CCCCCCC4)ccnc32)[C@H](O)[C@@H]1O (stereo partly specified) | 4 µM | 80 µM | 50 µM
37 | OC[C@H]1O[C@@H](n2cnc3c(NC4CC4)cc(Cl)nc32)C[C@@H]1O | 8 µM | 75 µM | 500 µM
38 | OC[C@H]1O[C@@H](n2cnc3c(NC4CCCCC4)ccnc32)C[C@@H]1O | 8 µM | > 100 µM | 100 µM
39 | OCC1CCC(n2cnc3c(NC4CCCCCC4)ccnc32)O1 (stereo unspecified) | 8 µM | 53 µM | 40 µM
40 | OCC1CCC(n2cnc3c(NC4CC4)ccnc32)O1 (stereo unspecified) | 100 µM | 78 µM | 750 µM
41 | Nc1cc(Cl)nc2c1ncn2[C@H]1C[C@H](O)[C@@H](CO)O1 | > 100 µM | 23 µM | > 100 µM
42 | OC[C@H]1O[C@@H](n2cnc3c(NC4CCCCCCC4)cc(Cl)nc32)C[C@@H]1O | 2 µM | > 100 µM | 40 µM
43 | OC[C@H]1O[C@@H](n2cnc3c(NC4CCCCCC4)ccnc32)C[C@@H]1O | 30 µM | 42 µM | 80 µM
44 | CNc1ccnc2c1ncn2[C@H]1C[C@H](O)[C@@H](CO)O1 | > 100 µM | 0.25 µM | > 100 µM
45 | OCC1CCC(n2cnc3c(NC4CCCC4)ccnc32)O1 (stereo unspecified) | 80 µM | > 100 µM | 500 µM
46 | CNc1cc(Cl)nc2c1ncn2C1O[C@H](CO)[C@@H](O)[C@H]1O (stereo partly specified) | > 100 µM | 69 µM | > 100 µM
47 | OC[C@H]1OC(n2cnc3c(NC4CCCCCCC4)cc(Cl)nc32)[C@H](O)[C@@H]1O (stereo partly specified) | 2 µM | 71 µM | 40 µM
48 | CNc1cc(Cl)nc2c1ncn2[C@H]1C[C@H](O)[C@@H](CO)O1 | > 100 µM | 4.2 µM | > 100 µM
49 | OC[C@H]1O[C@@H](n2cnc3c(NC4CCCC4)cc(Cl)nc32)[C@H](O)[C@@H]1O | 10 µM | > 100 µM | 100 µM
